From patent US20220280661A1, “GLUCOCORTICOID RECEPTOR RADIOLIGANDS AND METHODS FOR THEIR PREPARATION AND USE” (The Regents of the University of California, priority 2019, published 2022)
Read-outs that look alike come from different tables or passages of the source.

How the values were obtained:
plasma protein = assay: Plasma protein binding, rapid equilibrium dialysis, human plasma; assay type: in vitro ADME; settings: plasma (rapid equilibrium dialysis device), pH 7.4, human plasma
Experimental: (§1) Plasma Protein Binding Studies. The rapid equilibrium dialysis (RED) device inserts along with a Teflon base plate (Pierce, Rockford, Ill.) were used for the binding studies. The pH of the human or mouse plasma was adjusted to 7.4 prior to the experiment. DMSO stocks (1 mM) were spiked into the plasma to make a final concentration of 2 μM. The spiked plasma solutions (300 μL) were placed into the sample chamber (indicated by the red ring); and 500 μL of PBS buffer, pH 7.4, was placed into the adjacent chamber. The plate was incubated at 37° C. on an orbital shaker (250 rpm) for 4 hours.
(§2) After 4 hours, from the RED plate, aliquots (100 μL) were removed from each side of the insert (plasma and buffer) and dispensed into the 96-well plate. Subsequently, 100 μL of blank plasma was added to the buffer samples and 100 μL of blank buffer was added to all the collected plasma samples. 300 μL of quench solution (50% acetonitrile, 50% methanol, and 0.05% formic acid, warmed up at 37° C.) containing internal standards was added to each well. Plates were sealed, vortexed, and centrifuged at 4° C. for 15 minutes at 4000 rpm. The supernatant was transferred to fresh plates for LC/MS/MS analysis. The sample were analyzed on LC/MS/MS using an AB Sciex API 4000 instrument, coupled to a Shimadzu LC-20AD LC Pump system. Analytical samples were separated using a Waters Atlantis T3 dC18 reverse phase HPLC column (20 mm×2.1 mm) at a flow rate of 0.5 mL/min. The mobile phase consisted of 0.1% formic acid in water (solvent A) and 0.1% formic acid in acetonitrile (solvent B).
(§3) The percentage of test compound bound to protein was calculated by the following equations:
(§4) % Free=(Concentration in buffer chamber/Concentration in plasma chamber)×100%

[1] = as above; assay type: in vitro ADME; settings: human, plasma, pH 7.4, human plasma
Experimental: as §1, §2, §3, §4

full length human MR = target: T1, full length human MR (Homo sapiens, UniProt P08235); assay: 3H-ligand displacement assay on cells, MR (HEK293 overexpressing MR); assay type: binding
T1 construct: HEK293 transiently overexpressing full length human MR; expressed in transfected cells; host or cells: HEK293
T1 sequence (P08235 1-984): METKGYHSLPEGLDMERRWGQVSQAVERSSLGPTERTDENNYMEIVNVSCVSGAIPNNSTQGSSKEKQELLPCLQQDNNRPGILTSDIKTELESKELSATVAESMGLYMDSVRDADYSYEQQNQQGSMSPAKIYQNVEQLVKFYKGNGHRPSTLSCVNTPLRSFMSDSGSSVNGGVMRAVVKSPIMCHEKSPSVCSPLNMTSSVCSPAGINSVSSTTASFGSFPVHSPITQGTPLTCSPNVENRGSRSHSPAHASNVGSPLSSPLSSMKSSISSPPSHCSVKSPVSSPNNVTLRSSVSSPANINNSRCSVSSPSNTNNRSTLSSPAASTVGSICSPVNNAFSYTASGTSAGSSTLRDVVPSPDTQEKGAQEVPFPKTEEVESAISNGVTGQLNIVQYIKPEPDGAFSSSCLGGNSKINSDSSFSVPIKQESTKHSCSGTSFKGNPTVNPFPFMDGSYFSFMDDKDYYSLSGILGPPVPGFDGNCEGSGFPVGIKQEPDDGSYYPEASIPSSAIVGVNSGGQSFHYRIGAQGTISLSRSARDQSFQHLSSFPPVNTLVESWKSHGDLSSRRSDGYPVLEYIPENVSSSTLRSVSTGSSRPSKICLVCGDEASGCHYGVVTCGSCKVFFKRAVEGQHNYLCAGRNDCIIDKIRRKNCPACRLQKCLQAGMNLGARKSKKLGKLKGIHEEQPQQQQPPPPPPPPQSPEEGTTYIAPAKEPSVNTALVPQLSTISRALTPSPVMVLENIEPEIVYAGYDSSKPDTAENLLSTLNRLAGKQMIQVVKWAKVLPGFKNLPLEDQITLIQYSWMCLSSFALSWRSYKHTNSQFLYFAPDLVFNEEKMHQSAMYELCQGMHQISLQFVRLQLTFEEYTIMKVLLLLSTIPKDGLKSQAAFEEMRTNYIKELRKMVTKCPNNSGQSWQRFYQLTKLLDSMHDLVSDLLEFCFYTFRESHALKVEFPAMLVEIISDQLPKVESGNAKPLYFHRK
Experimental: The affinity of YJH08 for GR and the other type 1 subfamily 3 nuclear hormone receptors was evaluated using ^3H-ligand displacement assays on cells. The Kd for subfamily 3 class C nuclear hormone receptors was determined on cells by displacing ^3H-steroidal agonists for the respective receptor. […] The Kd was determined using the following cell lines: DU145 (GR), LNCaP-AR (AR), MCF7 (PR, ER), and HEK293 transiently overexpressing full length human MR.
The cold ligands and ^3H-steroids were co-incubated on cells in PBS at room temperature for one hour. Following incubation, the cells were washed twice with ice cold PBS and the unbound activity was retained for analysis. The cells were lysed with 1 mL of 1M NaOH and collected. Bound and unbound fractions were counted in a liquid scintillation counter and expressed as a percentage of the total activity added per equal relative number of cells. […] These experiments were performed at three concentrations of experimental ligand (1 pM, 100 nM and 10 μM), and a linear extrapolation was used to subtract the non-specific component of binding from each treatment condition. The specific binding component was plotted against the log of the competing ligand and curve fit using a non-linear regression algorithm with PRISM software.

COc1cccc2c1-c1ccc3c(c1C(Cc1ccc(F)cc1)O2)C(C)=CC(C)(C)N3 (racemic) [YJH08, 5-(4-fluorobenzyl)-10-methoxy-2,2,4-trimethyl-2,5-dihydro-1H-chromeno[3,4-f]quinoline]
recovery at 4 h, 2 μM (plasma protein): 97.6% | fraction unbound at 4 h, 2 μM ([1]; duplicate, read-out: % Bound (converted)): < 0.0001 | fraction unbound at 4 h, 2 μM ([1]; read-out: % Bound Average (converted)): < 0.0001 | Kd (full length human MR): 0.29 µM
